Source: patent US9302999B2, “Substituted triazoles as herbicides” (E. I. DU PONT DE NEMOURS AND COMPANY, priority 2012, dated 2016)

How the values were obtained:
Type in all cases: in vivo
[1] = tested on: mustard, wild (wild mustard, Sinapis arvensis); test: Test D pre-/postemergence: mustard, wild
Excerpt: (§1) Seeds of plant species selected from bluegrass (annual bluegrass, Poa annua), blackgrass (Alopecurus myosuroides), canarygrass (Phalaris minor), chickweed (common chickweed, Stellaria media), galium (catchweed bedstraw, Galium aparine), bromegrass, downy (downy bromegrass, Bromus tectorum), field poppy (Papaver rhoeas), field violet (Viola arvensis), foxtail, green (green foxtail, Setaria viridis), deadnettle (henbit deadnettle, Lamium amplexicaule), ryegrass, Italian (Italian ryegrass, Lolium multiflorum), kochia (Kochia scoparia), lambsquarters (Chenopodium album), oilseed rape (Brassica napus), pigweed (Amaranthus retroflexus), Russian thistle (Salsola iberica), chamomile (scentless chamomile, Matricaria inodora), speedwell (bird's-eye speedwell, Veronica persica), barley, spring (spring barley, Hordeum vulgare), wheat, spring (spring wheat, Triticum aestivum), buckwheat, wild (wild buckwheat, Polygonum convolvulus), mustard, wild (wild mustard, Sinapis arvensis), oat, wild (wild oat, Avena fatua), radish, wild (wild radish, Raphanus raphanistrum), windgrass (Apera spica-venti), barley, winter (winter barley, Hordeum vulgare), and wheat, winter (winter wheat, Triticum aestivum) were planted into a silt loam soil and treated preemergence with test chemicals formulated in a non-phytotoxic solvent mixture which included a surfactant. At the same time, these same crop and weed species were planted in pots containing the planting medium comprising spaghnum peat moss, vermiculite, wetting agent and starter nutrients and treated with postemergence applications of the test chemicals formulated in the same manner. Plants ranged in height from 2 to 18 cm (1- to 4-leaf stage).
(§2) Treated plants and controls were maintained in a controlled growth environment for 14 to 21 days after which time all species were compared to controls and visually evaluated. Plant response ratings, summarized in Table D, are based on a scale of 0 to 100 where 0 is no effect and 100 is complete control. A dash (-) response means no test result.

[2] = tested on: buckwheat, wild (wild buckwheat, Polygonum convolvulus); test: Test D pre-/postemergence: buckwheat, wild
Excerpt: as §1, §2

[3] = tested on: lambsquarters (Chenopodium album); test: Test D pre-/postemergence: lambsquarters
Excerpt: as §1, §2

[4] = tested on: chamomile (scentless chamomile, Matricaria inodora); test: Test D pre-/postemergence: chamomile
Excerpt: as §1, §2

[5] = tested on: bermudagrass (Cynodon dactylon); test: Test C pre-/postemergence: bermudagrass
Excerpt: Seeds of plant species selected from blackgrass (Alopecurus myosuroides), bromegrass, downy (downy bromegrass, Bromus tectorum), foxtail, green (green foxtail, Setaria viridis), ryegrass, Italian (Italian ryegrass, Lolium multiflorum), winter wheat (Triticum aestivum), wild oat (Avena fatua), galium (catchweed bedstraw, Galium aparine), bermudagrass (Cynodon dactylon), surinam grass (Brachiaria decumbens), cocklebur (common cocklebur, Xanthium strumarium), corn (Zea mays), large crabgrass (Digitaria sanguinalis), woolly cupgrass (Eriochloa villosa), foxtail, giant (giant foxtail, Setaria faberii), goosegrass (Eleusine indica), johnsongrass (Sorghum halepense), kochia (Kochia scoparia), lambsquarters (Chenopodium album), morningglory (Ipomoea coccinea), nightshade (eastern black nightshade, Solanum ptycanthum), nutsedge, yellow (yellow nutsedge, Cyperus esculentus), pigweed (Amaranthus retroflexus), ragweed (common ragweed, Ambrosia elation), soybean (Glycine max), common (oilseed) sunflower (Helianthus annuus), Russian thistle (Salsola kali) and velvetleaf (Abutilon theophrasti) were planted into a blend of loam soil and sand and treated preemergence with test chemicals formulated in a non-phytotoxic solvent mixture which included a surfactant.
At the same time, plants selected from these crop and weed species and also barley (winter barley, Hordeum vulgare), canarygrass (Phalaris minor), chickweed (common chickweed, Stellaria media) windgrass (Apera spica-venti) and deadnettle (henbit deadnettle, Lamium amplexicaule) were planted in pots containing Redi-Earth® planting medium (Scotts Company, 14111 Scottslawn Road, Marysville, Ohio 43041) comprising spaghnum peat moss, vermiculite, wetting agent and starter nutrients and treated with postemergence applications of test chemicals formulated in the same manner. Plants ranged in height from 2 to 18 cm (1- to 4-leaf stage) for postemergence treatments.
as §2, with “greenhouse” for “controlled growth environment”, “13” for “14”, “15 days,” for “21 days”, “C,” for “D,”

[6] = tested on: wheat, winter (winter wheat, Triticum aestivum); test: Test D pre-/postemergence: wheat, winter
Excerpt: as §1, §2

[7] = tested on: sedge, umbrella (small-flower umbrella sedge Cyperus difformis); test: Test B flooded paddy: sedge, umbrella; settings: Flood, applied to paddy water at 2-leaf stage, visually evaluated after 13 to 15 days
Method in brief: (§3)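 Plants were grown to the 2-leaf stage, then pots were flooded to 3 cm above the soil and compounds were applied directly into the paddy water. Water depth was held for the whole test; after 13 to 15 days in a greenhouse, injury was visually rated against untreated controls (0 = no effect, 100 = complete control).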

[8] = tested on: ducksalad (Heteranthera limosa); test: Test B flooded paddy: ducksalad; settings: Flood, applied to paddy water at 2-leaf stage, visually evaluated after 13 to 15 days
Method in brief: as §3

[9] = Postemergence, 62 g ai/ha, scale 0 to 100 (0 no effect, 100 complete control)
[10] = Postemergence, 250 g ai/ha, scale 0 to 100 (0 no effect, 100 complete control)
[11] = Postemergence, 16 g ai/ha, scale 0 to 100
[12] = Preemergence, 16 g ai/ha, scale 0 to 100 (0 no effect, 100 complete control)
[13] = Preemergence, 31 g ai/ha, scale 0 to 100 (0 no effect, 100 complete control)
[14] = Preemergence, 62 g ai/ha, scale 0 to 100
[15] = Preemergence, 125 g ai/ha, scale 0 to 100
[16] = Preemergence, 250 g ai/ha, scale 0 to 100
[17] = Postemergence, 31 g ai/ha, scale 0 to 100 (0 no effect, 100 complete control)
[18] = Postemergence, 125 g ai/ha, scale 0 to 100, 0 no effect, 100 complete control
[19] = Postemergence, 250 g ai/ha, scale 0 to 100
[20] = Preemergence, 31 g ai/ha, scale of 0 to 100, 0 is no effect, 100 is complete control
[21] = Preemergence, 62 g ai/ha, scale 0 to 100, 0 no effect, 100 complete control
[22] = Preemergence, 125 g ai/ha, scale 0 to 100, 0 no effect, 100 complete control
[23] = Preemergence, 250 g ai/ha, scale 0 to 100, 0 no effect, 100 complete control

Compound: Cc1nn(-c2ccc(F)cc2)nc1Cc1ccnc(C(F)(F)F)c1 [Compound 16, 4-[[2-(4-fluorophenyl)-5-methyl-2H-1,2,3-triazol-4-yl]methyl]-2-(trifluoromethyl)pyridine]
- Plant response rating: Mustard, Wild [1, 9]: 90
- Plant response rating: Mustard, Wild [1, 10]: 100
- Plant response rating, Mustard, Wild [1, 11]: 10
- Plant response rating, Mustard, Wild [1, 12]: 0
- Plant response rating, Mustard, Wild [1, 13]: 0
- Plant response rating, Mustard, Wild [1, 14]: 100
- Plant response rating, Mustard, Wild [1, 15]: 100
- Plant response rating, Mustard, Wild [1, 16]: 100
- Plant response rating: Buckwheat, Wild [2, 17]: 0
- Plant response rating: Buckwheat, Wild [2, 9]: 10
- Plant response rating: Buckwheat, Wild [2, 18]: 20
- Plant response rating: Buckwheat, Wild [2, 10]: 50
- Plant response rating, Buckwheat, Wild [2, 11]: 0
- Plant response rating, Buckwheat, Wild [2, 12]: 0
- Plant response rating, Buckwheat, Wild [2, 13]: 0
- Plant response rating, Buckwheat, Wild [2, 14]: 0
- Plant response rating, Buckwheat, Wild [2, 15]: 0
- Plant response rating, Buckwheat, Wild [2, 16]: 20
- Plant response rating: Lambsquarters [3, 17]: 80
- Plant response rating: Lambsquarters [3, 9]: 100
- Plant response rating: Lambsquarters [3, 18]: 100
- Plant response rating: Lambsquarters [3, 10]: 100
- Plant response rating, Lambsquarters [3, 11]: 75
- Plant response rating, Lambsquarters [3, 12]: 30
- Plant response rating, Lambsquarters [3, 13]: 50
- Plant response rating, Lambsquarters [3, 14]: 80
- Plant response rating, Lambsquarters [3, 15]: 95
- Plant response rating, Lambsquarters [3, 16]: 100
- Plant response rating: Chamomile [4, 17]: 0
- Plant response rating: Chamomile [4, 9]: 0
- Plant response rating: Chamomile [4, 18]: 5
- Plant response rating: Chamomile [4, 10]: 10
- Plant response rating, Chamomile [4, 11]: 0
- Plant response rating, Chamomile [4, 12]: 0
- Plant response rating, Chamomile [4, 13]: 0
- Plant response rating, Chamomile [4, 14]: 25
- Plant response rating, Chamomile [4, 15]: 70
- Plant response rating, Chamomile [4, 16]: 100
- Plant response rating, Bermudagrass [5, 17]: 5
- Plant response rating, Bermudagrass [5, 9]: 5
- Plant response rating, Bermudagrass [5, 18]: 15
- Plant response rating, Bermudagrass [5, 19]: 65
- Plant response rating, Bermudagrass [5, 20]: 5
- Plant response rating, Bermudagrass [5, 21]: 25
- Plant response rating, Bermudagrass [5, 22]: 75
- Plant response rating, Bermudagrass [5, 23]: 75
- Plant response rating: Wheat, Winter [6, 17]: 10
- Plant response rating: Wheat, Winter [6, 9]: 15
- Plant response rating: Wheat, Winter [6, 18]: 20
- Plant response rating: Wheat, Winter [6, 10]: 25
- Plant response rating, Wheat, Winter [6, 11]: 5
- Plant response rating, Wheat, Winter [6, 12]: 0
- Plant response rating, Wheat, Winter [6, 13]: 0
- Plant response rating, Wheat, Winter [6, 14]: 0
- Plant response rating, Wheat, Winter [6, 15]: 0
- Plant response rating, Wheat, Winter [6, 16]: 0

Compound: Cc1nn(-c2ccc(C(F)(F)F)cc2)nc1Cc1ccnc(C(F)(F)F)c1 [Compound 47, 4-[[5-methyl-2-[4-(trifluoromethyl)phenyl]-2H-1,2,3-triazol-4-yl]methyl]-2-(trifluoromethyl)pyridine]
- Plant response rating, Bermudagrass [5, 17]: 10
- Plant response rating, Bermudagrass [5, 9]: 20
- Plant response rating, Bermudagrass [5, 18]: 55
- Plant response rating, Bermudagrass [5, 19]: 75
- Plant response rating, Bermudagrass [5, 20]: 100
- Plant response rating, Bermudagrass [5, 21]: 100
- Plant response rating, Bermudagrass [5, 22]: 100
- Plant response rating, Bermudagrass [5, 23]: 100

Compound: Cc1nn(-c2ccc(C(F)(F)F)cc2)nc1Cc1cccc(C(F)(F)F)c1 [Compound 124]
- Plant response rating, Bermudagrass ([5]; Postemergence, 16 g ai/ha, scale 0 to 100, 0 no effect, 100 complete control): 5
- Plant response rating, Bermudagrass [5, 17]: 25
- Plant response rating, Bermudagrass [5, 9]: 45
- Plant response rating, Bermudagrass [5, 18]: 60

Compound: Cc1nn(-c2ccc(F)cc2)nc1Oc1ccnc(C(F)(F)F)c1 [Compound 129, 4-[[2-(4-fluorophenyl)-5-methyl-2H-1,2,3-triazol-4-yl]oxy]-2-(trifluoromethyl)pyridine]
- Plant response rating, Mustard, Wild [1, 12]: 0
- Plant response rating, Mustard, Wild [1, 13]: 5
- Plant response rating, Mustard, Wild [1, 14]: 40
- Plant response rating, Mustard, Wild [1, 15]: 80
- Plant response rating, Mustard, Wild [1, 16]: 100
- Plant response rating: Buckwheat, Wild [2, 17]: 60
- Plant response rating: Buckwheat, Wild [2, 9]: 80
- Plant response rating: Buckwheat, Wild [2, 18]: 100
- Plant response rating: Buckwheat, Wild [2, 10]: 100
- Plant response rating, Buckwheat, Wild [2, 11]: 60
- Plant response rating, Buckwheat, Wild [2, 12]: 0
- Plant response rating, Buckwheat, Wild [2, 13]: 0
- Plant response rating, Buckwheat, Wild [2, 14]: 0
- Plant response rating, Buckwheat, Wild [2, 15]: 70
- Plant response rating, Buckwheat, Wild [2, 16]: 100
- Plant response rating: Lambsquarters [3, 17]: 85
- Plant response rating: Lambsquarters [3, 9]: 95
- Plant response rating: Lambsquarters [3, 18]: 100
- Plant response rating: Lambsquarters [3, 10]: 100
- Plant response rating, Lambsquarters [3, 11]: 85
- Plant response rating, Lambsquarters [3, 12]: 0
- Plant response rating, Lambsquarters [3, 13]: 80
- Plant response rating, Lambsquarters [3, 14]: 90
- Plant response rating, Lambsquarters [3, 15]: 90
- Plant response rating, Lambsquarters [3, 16]: 100
- Plant response rating: Chamomile [4, 17]: 30
- Plant response rating: Chamomile [4, 9]: 30
- Plant response rating: Chamomile [4, 18]: 30
- Plant response rating: Chamomile [4, 10]: 35
- Plant response rating, Chamomile [4, 11]: 20
- Plant response rating, Chamomile [4, 12]: 0
- Plant response rating, Chamomile [4, 13]: 30
- Plant response rating, Chamomile [4, 14]: 30
- Plant response rating, Chamomile [4, 15]: 30
- Plant response rating, Chamomile [4, 16]: 100
- Plant response rating, Bermudagrass [5, 17]: 40
- Plant response rating, Bermudagrass [5, 9]: 45
- Plant response rating, Bermudagrass [5, 18]: 60
- Plant response rating, Bermudagrass [5, 19]: 70
- Plant response rating, Bermudagrass [5, 20]: 98
- Plant response rating, Bermudagrass [5, 21]: 98
- Plant response rating, Bermudagrass [5, 22]: 98
- Plant response rating, Bermudagrass [5, 23]: 98
- Plant response rating: Wheat, Winter [6, 17]: 5
- Plant response rating: Wheat, Winter [6, 9]: 10
- Plant response rating: Wheat, Winter [6, 18]: 20
- Plant response rating: Wheat, Winter [6, 10]: 20
- Plant response rating, Wheat, Winter [6, 11]: 5
- Plant response rating, Wheat, Winter [6, 12]: 0
- Plant response rating, Wheat, Winter [6, 13]: 0
- Plant response rating, Wheat, Winter [6, 14]: 0
- Plant response rating, Wheat, Winter [6, 15]: 5
- Plant response rating, Wheat, Winter [6, 16]: 10

Compound: CCCc1nn(-c2ccc(F)cc2)nc1Cc1ccnc(C(F)(F)F)c1 [Compound 153]
- Plant response rating, Sedge, Umbrella (0 to 100 scale, 0 is no effect, 100 is complete control) ([7]; 250 g ai/ha): 90
- Plant response rating, Ducksalad (0 to 100 scale, 0 is no effect, 100 is complete control) ([8]; 250 g ai/ha): 90

Compound: Cc1nn(-c2ccc(C(F)(F)F)c(F)c2)nc1Cc1ccnc(C(F)(F)F)c1 [Compound 162]
- Plant response rating, Sedge, Umbrella (0 to 100 scale, 0 is no effect, 100 is complete control) ([7]; 125 g ai/ha): 80
- Plant response rating, Ducksalad (0 to 100 scale, 0 is no effect, 100 is complete control) ([8]; 125 g ai/ha): 0
